This note sets out measurements from ChEMBL document CHEMBL5154904, “Discovery and Structural Basis of the Selectivity of Potent Cyclic Peptide Inhibitors of MAGE-A4” (J Med Chem, 2022).

Test [1] has as its target T1, Melanoma-associated antigen 4 (Homo sapiens, UniProt P43358).
T1 sequence (P43358 whole entry): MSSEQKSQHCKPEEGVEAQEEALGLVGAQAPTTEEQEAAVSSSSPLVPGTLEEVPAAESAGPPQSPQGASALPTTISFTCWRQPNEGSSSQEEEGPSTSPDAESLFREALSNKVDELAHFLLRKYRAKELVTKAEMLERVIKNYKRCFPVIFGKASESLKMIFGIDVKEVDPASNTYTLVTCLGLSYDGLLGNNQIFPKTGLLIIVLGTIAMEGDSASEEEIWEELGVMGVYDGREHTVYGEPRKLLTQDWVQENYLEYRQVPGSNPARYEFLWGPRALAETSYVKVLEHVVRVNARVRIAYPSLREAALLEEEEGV
Description: Binding affinity to recombinant N-terminal His-tagged MAGEA4-MH domain (unknown origin) expressed in Escherichia coli BL21-(DE3) by isothermal titration calorimetry.

For a further test, the system named is NCI-H1299. Description: Inhibition of MAGEA4 in human NCI-H1299 cell lysate interaction with HA-tagged RAD18 (unknown origin) at 20 nM incubated for overnight by co-immunoprecipitation pull down assay. It is filed as subcellular.
For test [2], the target named is T2, Melanoma-associated antigen 4 (Homo sapiens) (UniProt P43358).
T2 sequence (whole entry): T1 sequence (P43358 whole entry)
Description: Binding affinity to recombinant N-terminal His-tagged MAGEA4-MH domain (unknown origin) expressed in Escherichia coli BL21-(DE3) assessed as protection in trypsin-induced MAGEA4 protein degradation incubated for 1 hr by proteolysis based SDS-PAGE analysis.

Test [3] relates to T3, Melanoma-associated antigen 4 (Homo sapiens), P43358 [M161A].
T3 sequence (whole entry): T1 sequence (P43358 whole entry) with M161A
Description: Binding affinity to recombinant N-terminal His-tagged MAGEA4-MH domain M161A mutant (unknown origin) expressed in Escherichia coli BL21-(DE3) assessed as increase in thermal stability by SYPRO orange dye based differential scanning fluorimetry. The settings on record: dose 10.0 µM. On the technique in general: In DSF a fluorescence change marks the thermal transition of the protein.

The subject of test [4] is T4, Melanoma-associated antigen 4 (Homo sapiens), P43358 [I205A].
T4 sequence (whole entry): T1 sequence (P43358 whole entry) with I205A
Description: Binding affinity to recombinant N-terminal His-tagged MAGEA4-MH domain I205A mutant (unknown origin) expressed in Escherichia coli BL21-(DE3) assessed as increase in thermal stability by SYPRO orange dye based differential scanning fluorimetry. The settings on record: dose <= 10.0 µM.

The test system of test [5] is T5, Melanoma-associated antigen 4 (Homo sapiens), P43358 [V228A].
T5 sequence (whole entry): T1 sequence (P43358 whole entry) with V228A
Nature of the test: Binding affinity to recombinant N-terminal His-tagged MAGEA4-MH domain V228A mutant (unknown origin) expressed in Escherichia coli BL21-(DE3) assessed as increase in thermal stability by SYPRO orange dye based differential scanning fluorimetry. The settings on record: dose <= 10.0 µM.

Test [6] relates to T6, Melanoma-associated antigen 4 (Homo sapiens), P43358 [M229A].
T6 sequence (whole entry): T1 sequence (P43358 whole entry) with M229A
Nature of the test: Binding affinity to recombinant N-terminal His-tagged MAGEA4-MH domain M229A mutant (unknown origin) expressed in Escherichia coli BL21-(DE3) assessed as increase in thermal stability by SYPRO orange dye based differential scanning fluorimetry. The settings on record: dose <= 10.0 µM.

In test [7] the test system is T7, Melanoma-associated antigen 4 (Homo sapiens), P43358 [D115R].
T7 sequence (whole entry): T1 sequence (P43358 whole entry) with D115R
Nature of the test: Binding affinity to recombinant N-terminal His-tagged MAGEA4-MH domain D115R mutant (unknown origin) expressed in Escherichia coli BL21-(DE3) assessed as increase in thermal stability by SYPRO orange dye based differential scanning fluorimetry. The settings on record: dose <= 10.0 µM.

For another test, the species on record is Homo sapiens. Description: Inhibition of Eu-W1024 streptavidin-labeled 6 xHis-tagged MAGEA4-MH domain E225A mutant (unknown origin) expressed in Escherichia coli BL21-(DE3) interaction with Ulight-labeled GST-tagged RAD18 (unknown origin) (267 to 402 residues) at 1 uM by LANCE TR-FRET assay. (TR-FRET usually uses a lanthanide donor and a delayed reading to cut background.)

Positions count from the first letter of the chain named. Calls of active or inactive are those of the source. The calls are words filed in the database; no cut-off is given here. Positions of bridges follow the written chain, without caps; N, C: chain ends. Residues, ends and D or L forms follow the SMILES beside them. Where only a bound is given, the exact number is not on record here.

The term Kd denotes the concentration at which binding is half-saturated.

On to `CC[C@H](C)[C@@H]1NC(=O)[C@H](Cc2ccc(O)cc2)NC(=O)CSC[C@@H](C(N)=O)NC(=O)[C@H](CC(N)=O)NC(=O)[C@H](Cc2cnc[nH]2)NC(=O)[C@H](Cc2ccc(O)cc2)NC(=O)[C@H](CC(=O)O)NC(=O)[C@H](Cc2ccc(O)cc2)NC(=O)[C@H](CC(C)C)NC(=O)[C@H](CCCNC(=N)N)NC1=O` ({CH2CO}-YIRLYDYHNC-NH2; thioether N-10), for which the Kd in test [1] is 9.7 nM. Besides, the inhibition result in the test on NCI-H1299 and in the test listed under Homo sapiens was “Active” throughout. For the same molecule, the result in [2] was Active. For the same molecule, the Tm in test [3], in test [4], in test [5], in test [6] and in test [7] was less than 3.5 °C each time.
